Results reported in patent US7470537B2, “Adipose-derived stem cells and lattices” (priority 1999, dated 2008).

Key:
Type in all cases: cell-based, human
[1] = system: Adipose-derived stem cells; assay: Culture in the presence of 5-azacytidine; settings: exposure to 5-azacytidine
Experimental: Adipose-derived stem cells obtained in accordance with Example 1 were cultured in the presence of 5-azacytidine.

matrix mineralization = assay: Total calcium, spectrophotometric
Experimental: Cells were washed with PBS (no Ca^2+, no Mg^2+) and harvested in 0.1N HCl. Cells were extracted for a minimum of 4 hours at 4° C. and centrifuged at 1000×g for 5 minutes. Total calcium in the supernatant was determined using Sigma kit #587 and measured at A575 nm. The assay was calibrated using calcium standard solutions. Total protein was determined and the samples were expressed as mM Ca/ug protein. […] Values are expressed as the mean±SD.
Bone formation in vivo is a complex process involving morphogens, hormones and growth factors. Recent work has questioned the efficacy of synthetic glucocorticoids, like dexamethasone (Dex), in mediating osteogenesis. Glucocorticoids appear to inhibit the action of several osteogenic genes including osteocalcin, CBFA-1 and CNI (as reviewed in Cooper, et al., 1999 J. Endocrinol. 163:159-164). It is well established that bone tissue and osteoprogenitor cells are targets of vitamin D action (Chen, et al., 1983 J. Biol. Chem. 258:4350; Chen, et al., 1979 J. Biol. Chem. 254:7491; Narbaitz, et al., 1983 Calcif. Tiss. Int. 35:177) and this metabolite stimulates both AP activity and CNI synthesis by human bone cell populations (Beresford, et al., 1986 Endo 119:1776-1785). […] AP activity and Ca^2+ accumulation were measured over time using commercial kits and normalized with respect to protein and/or time.

Alkaline phosphatase = Alkaline phosphatase enzyme activity, spectrophotometric; settings: 2 to 3 weeks
PLA cells = assay: Micromass culture chondrogenic nodule formation; settings: induction medium containing TGFβ1 alone
Experimental: Chondrogenic differentiation was induced using a micromass culture protocol as previously described with some modifications (Ahrens, P B, et al., 1977 Dev. Biol. 60:69-82; Denker, A E 1995 Differentiation 59:25-34). Ten microliter drops of the PLA cellular suspension were placed in the center of each well of a 24-well tissue culture plate and on chamber slides. The cells were placed in an incubator at 37° C. at 5% CO2 for two hours to allow cell adherence. The pellets were gently overlaid with control medium and incubated overnight. The medium was replaced by chondrogenic medium [DMEM with 1% FBS supplemented with 10 ng/ml TGF-β1 (R&D Systems, Minneapolis, Minn.), 6.25 μg/ml insulin (Sigma), and 6.25 μg/ml transferrin (Sigma)]. The pellets were induced for six days in chondrogenic medium. At day six and thereafter, 50 μg/ml ascorbic acid-2-phosphate (Sigma) was added to the chondrogenic medium mixture. PLA pellets were harvested at days two, seven, and fourteen after initial induction for analysis. […] HFF cells were cultured as above under micromass and monolayer conditions as a negative control.
In order to assess the relationship of chondrogenic induction to PLA cell, micromass cultures were plated in chondrogenic medium at cell concentrations of 1×10^5, 1×10^6, 2.5×10^6, 5×10^6, 1×10^7, 2×10^7, and 5×10^7 cells per milliliter (cells/ml). […]

Nc1ncn([C@@H]2O[C@H](CO)[C@@H](O)[C@H]2O)c(=O)n1 [5-azacytidine]
myogenic differentiation of adipose-derived stem cells [1]: did not induce myogenic differentiation

C[C@@H]1C[C@H]2[C@@H]3CCC4=CC(=O)C=C[C@]4(C)[C@@]3(F)[C@@H](O)C[C@]2(C)[C@@]1(O)C(=O)CO [Dex, dexamethasone]
overall increase in matrix mineralization in PLA cells (matrix mineralization): 56 fold
AP enzyme induction in MSCs (Alkaline phosphatase; MSCs): 54.2 fold
AP enzyme induction in PLA cells (Alkaline phosphatase; PLA cells): 17.2 fold

C=C1/C(=C\C=C2/CCC[C@]3(C)[C@@H]([C@H](C)CCCC(C)(C)O)CC[C@@H]23)C[C@@H](O)C[C@@H]1O [VD, 1,25-dihydroxyvitamin D3]
overall increase in matrix mineralization in PLA cells (matrix mineralization): 122 fold

TGFβ1: transforming growth factor-beta 1
nodule formation by PLA cells (PLA cells): PLA nodules formed
